What all share (assay type): functional, organism-based
For assay [1], the system named is Leishmania donovani. The assay can be described thus: Tested in vitro for leishmanicidal activity against Leishmania donovani (PP75) at the concentration of 50 ug/mL;++ indicates 80-90% lysis of parasites.
Assay [2] deals with Leishmania braziliensis. The assay can be described thus: Tested in vitro for leishmanicidal activity against Leishmania brasiliensis (2903) at the concentration of 10 ug/mL;+ indicates Less than 70% lysis of parasites.
Assay [3] has as its system Leishmania braziliensis. The assay can be described thus: Tested in vitro for leishmanicidal activity against Leishmania brasiliensis (2903) at the concentration of 50 ug/mL;++ indicates 80-90% lysis of parasites.
Assay [4] has as its system Leishmania donovani. The assay can be described thus: In vitro for leishmanicidal activity against Leishmania donovani (PP75) at the concentration of 10 ug/mL.
Assay [5] relates to Leishmania donovani. The assay can be described thus: In vitro for leishmanicidal activity against Leishmania donovani (PP75) at the concentration of 100 ug/mL.
Assay [6] relates to Leishmania donovani. The assay can be described thus: Tested in vitro for leishmanicidal activity against Leishmania donovani (PP75) at the concentration of 25 ug/mL;+ indicates Less than 70% lysis of parasites.
Assay [7] deals with Leishmania amazonensis. The assay can be described thus: In vitro for leishmanicidal activity against Leishmania amazonensis (PH8) at the concentration of 100 ug/mL.
For assay [8], the system named is Leishmania amazonensis. The assay can be described thus: Tested in vitro for leishmanicidal activity against Leishmania amazonensis (PH8) at the concentration of 25 ug/mL; + indicates less than 70% lysis of parasites.
The test system of assay [9] is Leishmania amazonensis. The assay can be described thus: Tested in vitro for leishmanicidal activity against Leishmania amazonensis (PH8) at the concentration of 50 ug/mL; ++ indicates 80-90% lysis of parasites.
The subject of assay [10] is Leishmania braziliensis. The assay can be described thus: In vitro for leishmanicidal activity against Leishmania brasiliensis (2903) at the concentration of 100 ug/mL.
In assay [11] the test system is Leishmania braziliensis. The assay can be described thus: Tested in vitro for leishmanicidal activity against Leishmania brasiliensis (2903) at the concentration of 25 ug/mL;+ indicates Less than 70% lysis of parasites.
Assay [12] has as its system Leishmania amazonensis. The assay can be described thus: In vitro for leishmanicidal activity against Leishmania amazonensis (PH8) at the concentration of 10 ug/mL.
The subject of assay [13] is Leishmania braziliensis. The assay can be described thus: In vitro for leishmanicidal activity against Leishmania brasiliensis (2903) at the concentration of 10 ug/mL.
Assay [14] deals with Leishmania braziliensis. The assay can be described thus: Tested in vitro for leishmanicidal activity against Leishmania brasiliensis (2903) at the concentration of 100 ug/mL; + indicates Less than 70% lysis of parasites.
For assay [15], the system named is Leishmania braziliensis. The assay can be described thus: In vitro for leishmanicidal activity against Leishmania brasiliensis (2903) at the concentration of 50 ug/mL.
The subject of assay [16] is Leishmania donovani. The assay can be described thus: Tested in vitro for leishmanicidal activity against Leishmania donovani (PP75) at the concentration of 10 ug/mL.
Assay [17] relates to Leishmania donovani. The assay can be described thus: Tested in vitro for leishmanicidal activity against Leishmania donovani (PP75) at the concentration of 100 ug/mL;+ indicates Less than 70% lysis of parasites.
The subject of assay [18] is Leishmania donovani. The assay can be described thus: In vitro for leishmanicidal activity against Leishmania donovani (PP75) at the concentration of 25 ug/mL.
Assay [19] has as its system Leishmania donovani. The assay can be described thus: In vitro for leishmanicidal activity against Leishmania donovani (PP75) at the concentration of 50 ug/mL.
The test system of assay [20] is Leishmania amazonensis. The assay can be described thus: Tested in vitro for leishmanicidal activity against Leishmania amazonensis (PH8) at the concentration of 100 ug/mL; + indicates less than 70% lysis of parasites.
In assay [21] the test system is Leishmania amazonensis. The assay can be described thus: In vitro for leishmanicidal activity against Leishmania amazonensis (PH8) at 25 ug/mL; No lysis of parasites.
For assay [22], the system named is Leishmania amazonensis. The assay can be described thus: In vitro for leishmanicidal activity against Leishmania amazonensis (PH8) at the concentration of 50 ug/mL.
Assay [23] relates to Leishmania braziliensis. The assay can be described thus: In vitro for leishmanicidal activity against Leishmania brasiliensis (2903) at the concentration of 25 ug/mL.
Assay [24] concerns Leishmania braziliensis. The assay can be described thus: Tested in vitro for leishmanicidal activity against Leishmania brasiliensis (2903) at the concentration of 10 ug/mL;++ indicates 80-90% lysis of parasites.
Assay [25] concerns Leishmania donovani. The assay can be described thus: Tested in vitro for leishmanicidal activity against Leishmania donovani (PP75) at the concentration of 10 ug/mL;++ indicates 80-90% lysis of parasites.
The test system of assay [26] is Leishmania amazonensis. The assay can be described thus: Tested in vitro for leishmanicidal activity against Leishmania amazonensis (PH8) at the concentration of 10 ug/mL; ++ indicates 80-90% lysis of parasites.
Assay [27] relates to Leishmania amazonensis. The assay can be described thus: Tested in vitro for leishmanicidal activity against Leishmania amazonensis (PH8) at the concentration of 100 ug/mL; + indicates Less than 70% lysis of parasites.

Each structure is given as a SMILES string.

For `CCCCCCCCCCCCCCC(N)CNCC` (centres undefined), the Activity is 80-90% lysis of parasites in the assay on Leishmania donovani [1]; 80-90% lysis of parasites in the assay on Leishmania braziliensis [2]; 80-90% lysis of parasites in the assay with Leishmania braziliensis [3]; 80-90% lysis of parasites with Leishmania donovani [4]; “+” in the assay with Leishmania donovani [5]; 80-90% lysis of parasites in the assay with Leishmania donovani [6]. In addition, the Activity result with Leishmania amazonensis [7] was “+”; in the assay on Leishmania amazonensis [8], 80-90% lysis of parasites; in the assay with Leishmania amazonensis [9], 80-90% lysis of parasites; in the assay with Leishmania braziliensis [10], “+”; with Leishmania braziliensis [11], 80-90% lysis of parasites; with Leishmania amazonensis [12] it was 80-90% lysis of parasites.

For `CCCCCCCCCCCCCCC(=O)NC(CO)CCCCCCCCCCCCCC` (centres undefined), the Activity result in the assay with Leishmania braziliensis [13], in the assay on Leishmania braziliensis [14], in the assay on Leishmania braziliensis [15], in the assay with Leishmania donovani [16], in the assay on Leishmania donovani [17] and in the assay with Leishmania donovani [18] was “Less than 70% lysis of parasites” each time. Also, the Activity result in the assay with Leishmania donovani [19], in the assay with Leishmania amazonensis [20], in the assay on Leishmania amazonensis [21], in the assay with Leishmania amazonensis [22], with Leishmania braziliensis [23] and in the assay with Leishmania amazonensis [12] was “Less than 70% lysis of parasites” each time.

Regarding `CCCCCCCCCCCCCCC(=O)NC(CCCCCCCCCCCCCC)COC(=O)CCCCCC` (centres undefined), the Activity result with Leishmania braziliensis [13], with Leishmania braziliensis [14], in the assay with Leishmania braziliensis [15], in the assay with Leishmania donovani [16], in the assay on Leishmania donovani [17] and in the assay on Leishmania donovani [18] was “Less than 70% lysis of parasites” each time. For the same molecule, the Activity result in the assay with Leishmania donovani [19], in the assay on Leishmania amazonensis [20], with Leishmania amazonensis [21], with Leishmania amazonensis [22], in the assay with Leishmania braziliensis [23] and in the assay with Leishmania amazonensis [12] was “Less than 70% lysis of parasites” throughout.

On to `CCCCCCCCCCCCCCC(CN(CC)CC)NC(=O)OC(C)(C)C` (centres undefined), for which the Activity was 80-90% lysis of parasites in the assay on Leishmania braziliensis [24]; 80-90% lysis of parasites with Leishmania donovani [25]; “+” in the assay on Leishmania donovani [5]; “+” in the assay on Leishmania donovani [19]; “+” in the assay on Leishmania amazonensis [7]; “+” in the assay with Leishmania amazonensis [22]. Besides, the Activity entry is “+” with Leishmania braziliensis [10] and 80-90% lysis of parasites in the assay with Leishmania amazonensis [26].

Turning to `CCCCCCCCCCCCCCC(CNCC)NC(=O)OC(C)(C)C` (centres undefined), the Activity in the assay with Leishmania braziliensis [24] is 80-90% lysis of parasites; in the assay on Leishmania donovani [4], 80-90% lysis of parasites; with Leishmania donovani [5], 80-90% lysis of parasites; with Leishmania donovani [6], 80-90% lysis of parasites; in the assay on Leishmania donovani [19] it was “+”; in the assay on Leishmania amazonensis [7] it was “+”. Moreover, the Activity with Leishmania amazonensis [8] is 80-90% lysis of parasites; in the assay on Leishmania amazonensis [22], “+”; with Leishmania braziliensis [10] it was “+”; in the assay on Leishmania amazonensis [12] it was 80-90% lysis of parasites.

With `CCCCCCCCCCCCCCC(CNCC(=O)OCC)NC(=O)OC(C)(C)C` (centres undefined), the Activity is 80-90% lysis of parasites with Leishmania donovani [1]; 80-90% lysis of parasites with Leishmania braziliensis [2]; 80-90% lysis of parasites in the assay on Leishmania braziliensis [3]; 80-90% lysis of parasites with Leishmania donovani [4]; “+” in the assay on Leishmania donovani [5]; 80-90% lysis of parasites in the assay on Leishmania donovani [6]. Further, the Activity result with Leishmania amazonensis [7] is “+”; in the assay with Leishmania amazonensis [8] it was 80-90% lysis of parasites; in the assay on Leishmania amazonensis [22], “+”; with Leishmania braziliensis [10], “+”; in the assay on Leishmania braziliensis [11], 80-90% lysis of parasites; in the assay with Leishmania amazonensis [12], 80-90% lysis of parasites.

On to `CCCCCCCCCCCCCCC(COCc1ccccc1)NC(=O)OC(C)(C)C` (centres undefined), for which the Activity result in the assay with Leishmania braziliensis [13], in the assay with Leishmania braziliensis [14], with Leishmania braziliensis [15], in the assay with Leishmania donovani [16], in the assay on Leishmania donovani [17] and with Leishmania donovani [18] was “Less than 70% lysis of parasites” each time. Besides, the Activity entry with Leishmania donovani [19], in the assay with Leishmania amazonensis [27], in the assay on Leishmania amazonensis [21], in the assay on Leishmania amazonensis [22], with Leishmania braziliensis [23] and in the assay with Leishmania amazonensis [12] was “Less than 70% lysis of parasites” in each case.

Consider `CCCCCCCCCCCCCCC(N)COCc1ccccc1` (centres undefined), for which the Activity entry in the assay on Leishmania braziliensis [13], with Leishmania braziliensis [14], in the assay with Leishmania braziliensis [15], in the assay on Leishmania donovani [16], in the assay with Leishmania donovani [17] and in the assay with Leishmania donovani [18] was “Less than 70% lysis of parasites” each time. For the same molecule, the Activity entry in the assay with Leishmania donovani [19], in the assay on Leishmania amazonensis [27], with Leishmania amazonensis [21], with Leishmania amazonensis [22], with Leishmania braziliensis [23] and in the assay with Leishmania amazonensis [12] was “Less than 70% lysis of parasites” in each case.

Turning to `CCCCCCCCCCCCCCC(=O)NC(CCCCCCCCCCCCCC)COC(=O)CCCCCCCCCCCCCC` (centres undefined), the Activity entry with Leishmania braziliensis [13], with Leishmania braziliensis [14], in the assay on Leishmania braziliensis [15], in the assay on Leishmania donovani [16], in the assay on Leishmania donovani [17] and in the assay on Leishmania donovani [18] was “Less than 70% lysis of parasites” throughout. Moreover, the Activity result in the assay on Leishmania donovani [19], in the assay on Leishmania amazonensis [20], in the assay on Leishmania amazonensis [21], in the assay with Leishmania amazonensis [22], in the assay with Leishmania braziliensis [23] and with Leishmania amazonensis [12] was “Less than 70% lysis of parasites” in each case.

On to `CCCCCCCCCCCCCCC(N)CN(CC(=O)O)CC(=O)O` (centres undefined), for which the Activity in the assay on Leishmania donovani [1] was 80-90% lysis of parasites; in the assay on Leishmania braziliensis [13], 80-90% lysis of parasites; with Leishmania braziliensis [3], 80-90% lysis of parasites; in the assay on Leishmania donovani [16], 80-90% lysis of parasites; in the assay on Leishmania donovani [5], “+”; with Leishmania donovani [6], 80-90% lysis of parasites. For the same molecule, the Activity result with Leishmania amazonensis [7] was “+”; in the assay on Leishmania amazonensis [8], 80-90% lysis of parasites; in the assay with Leishmania amazonensis [9], 80-90% lysis of parasites; in the assay on Leishmania braziliensis [10], “+”; with Leishmania braziliensis [11], 80-90% lysis of parasites; with Leishmania amazonensis [12], 80-90% lysis of parasites.

These data come from ChEMBL document CHEMBL1135076, “Leishmanicidal activity of some aliphatic diamines and amino-alcohols” (Bioorg Med Chem Lett, 2002).
